system: M. tuberculosis HN 3409; assay type: cell-based, Mycobacterium tuberculosis; conditions: preliminary results, 29 days

| Compound | Multi-Drug Resistant Tuberculosis Strain HN3409 [µg/mL] |
| --- | --- |
| Oc1c(I)cc(Cl)c2cccnc12 [drawing 32] | <10.0 |
| Cc1nc(-c2ccccn2)nc(N(C)Cc2ccccc2)c1Cl [drawing 29] | <1.0 |
| O=C1C(Cl)=C(Cl)C(=O)c2ccccc21 | <10.0 |
| Oc1c(Br)cc(Cl)c2cccnc12 [drawing 31] | <5.0 |
| Oc1c(Cl)cc(Cl)c2cccnc12 | <1.0 |
| O=C(N/N=C/c1c(O)ccc2ccccc12)c1ccncc1 [drawing 27] | >25.0 |
| O=C1C(Br)=C(Br)C(=O)c2ccccc21 | <25.0 |
| Oc1ccccc1/C=N/Nc1ncnc2sc3c(c12)CCCC3 [drawing 28] | >25.0 |
